According to US10676744B2, “Modulation of adipose tissue macrophage phenotype by use of MicroRNA-30” (University of South Carolina, priority 2017, dated 2020):

Key:
Assay type in all cases: cell-based, mice
[1] = test system: miRs-30a-5p, -30c-5p, and -30e-5p; test: In vitro LNA transfection assay in conditioned BMDM: miR-30 expression; details: BMDM in CM-3T3-L1A, LNA-transfected; relative to Mock and control LNA (Ctr LNA)
Description: ATMs were lysed in Qiazol and total RNA was purified using Qiagen miRNeasy Microkit. RNA concentration and purity were measured using a NanoDrop 2000 spectrophotometer. 400 ng total RNA was reverse transcribed to cDNA using Qiagen miScript II RT kit with HiFlex buffer. To validate miRNA expression by qRT-PCR, miScript SYBR Green PCR kit and miScript miRNA Primer Assays were used (Qiagen).
(§1) Bone marrow derived macrophages (BMDM) were differentiated from bone marrow cells (BMC) by flushing the tibia and femur of 6-8 week old female C57Bl/6J mice with PBS. BMCs were filtered through a 70 μm nylon mesh, RBC-lysed, and washed, then cultured in complete DMEM/F12 supplemented with 10% FBS, 1% penicillin/streptomycin, 2 mM L-glutamine, and 1 U/mL M-CSF (BioLegend, 576406) for 7-10 days. 3T3-L1 adipocyte-conditioned media (CM-3T3-L1A) was generated by differentiating 3T3-L1 preadipocytes into adipocytes according to the Zen-Bio 3T3-L1 Adipocyte Care Manual (ZBM0009.03). Preadipocyte medium, differentiation medium, and adipocyte maintenance medium were also used (Zen-Bio, PM-1-L1, DM-2-L1, AM-1-L1). Conditioned medium was collected between days 7 and 14 post-differentiation, 0.22 μm filtered, aliquoted, and stored at −80° C. until use. For transfection assays, mature BMDM were plated in poly-D-lysine-coated 6-well plates at a density of 5×10^5 cells in 2 ml CM-3T3-L1A containing 10% FBS without antibiotics. BMDM were incubated 24 h (37° C., 5% CO2, 95% humidity) before transfection. Transfection complexes were prepared by diluting Lipofectamine3000 and LNA in Opti-MEM to final concentrations of 2% (v/v) and 0.32 μM respectively. Mixtures were incubated 15-20 m at RT to allow complexes to form. Meanwhile, conditioned BMDM were washed 3× in pre-warmed Dulbecco's PBS (DPBS), then media replaced with 2 mL Opti-MEM. 5004 transfection complexes were added drop-wise to each well. […]

[2] = test system: DLL4; test: In vitro LNA transfection assay in BMDM: DLL4 in culture supernatants by ELISA; details: LNA-transfected BMDM; compared to Mock and Ctr LNA; harvested at 48 h
Description: (§2) FIG. 3A schematically illustrates an in vitro experimental timeline during which differentiated bone marrow-derived microphages (BMDM) were incubated in conditioned medium from 3T3-L1 adipocytes (CM-3T3-L1A) prior to transfection with microRNA inhibitor locked nucleic acids (LNA) and subsequent culture. Cells and supernatants were harvested at 48 h.
FIG. 3B presents the amounts of DLL4 detected in culture supernatants by ELISA during the in vitro experiments.
as §1, with “form.” for “form. Meanwhile, conditioned BMDM were washed 3× in pre-warmed Dulbecco's PBS (DPBS), then media replaced with 2 mL Opti-MEM. 5004 transfection complexes were added drop-wise to each well.”
Culture supernatants were aspirated and centrifuged 5000 RPM, 5 m, 4° C. to rid of debris then aliquoted and stored −80° C. before assaying. […] Assays were performed according to manufacturer protocols and plates were read at 450 nm. Concentrations were calculated using standard curves.

[3] = test system: Notch1 intracellular domain (N1ICD); test: In vitro LNA transfection assay in BMDM: Western blot of cleaved/activated Notch1; details: LNA-transfected BMDM, compared to Mock and Ctr LNA
Description: as §2
FIG. 3C presents Western blot results of cleaved/activated Notch1 (N1ICD) during the in vitro experiments. Fold induction relative to Mock is represented below each lane.
as §1

[4] = test system: CD11c; test: In vitro LNA transfection assay in BMDM: CD11c surface expression by flow cytometry; details: DAPT (5 uM) added to culture media of transfected BMDM
Description: as §2
FIG. 3F presents flow cytometry histograms of CD11c expression in the transfected BMDM. For FIG. 3B-FIG. 3F, values are presented as mean±SEM and are from a single experiment representative of 2-3 independent experiments.
FIG. 3G presents the percentage increase in CD11c+ macrophages during the in vitro experiments.
Freshly isolated SVF cells or cultured BMDM were washed in FACS buffer then incubated on ice with FcR-Blocker for 10 m followed by appropriate fluorochrome-conjugated antibodies or isotype controls (BioLegend, anti-CD11b-AlexaFluor488 clone: M1/70, anti-F4/80-PE clone: BM8, anti-DLL4-APC clone: HMD4-1, anti-CD45-PECy7 clone: 30-F11, anti-CD11c-APC clone: N418) for 50 m. Stained cells were washed 3× in FACS buffer then analyzed on a Beckman Coulter FC500 or BD FACSCelesta flow cytometer. Plots were analyzed with Beckman Coulter CXP Software or FlowJo v10.
Bone marrow derived macrophages (BMDM) were differentiated from bone marrow cells (BMC) by flushing the tibia and femur of 6-8 week old female C57Bl/6J mice with PBS. […]

Compound | expression of miRs-30a-5p, -30c-5p, and -30e-5p [1] | DLL4 expression (culture supernatants, ELISA) [2] | activated Notch1 intracellular domain (N1ICD) expression [3] | induction of CD11c in miR-30 inhibitor-transfected cells [4]
Anti-30e: miRNA inhibitor locked nucleic acid (MirCURY LNA, Exiqon) targeting miR-30e-5p; SEQ ID NO: 4 TCCAGTCAAGGATGTTTAC (LNA-modified miRCURY inhibitor, LNA positions and linkages not given here) | decreased expression | increased | increased | –
C[C@H](NC(=O)Cc1cc(F)cc(F)c1)C(=O)N[C@H](C(=O)OC(C)(C)C)c1ccccc1 [DAPT] | – | – | – | reduced induction
Anti-30a: miRNA inhibitor locked nucleic acid (MirCURY LNA, Exiqon) targeting miR-30a-5p; SEQ ID NO: 2 TTCCAGTCGAGGATGTTTAC (LNA-modified miRCURY inhibitor, LNA positions and linkages not given here) | decreased expression | increased | increased | –
Anti-30c: miRNA inhibitor locked nucleic acid (MirCURY LNA, Exiqon) targeting miR-30c-5p; SEQ ID NO: 3 CTGAGAGTGTAGGATGTT (LNA-modified miRCURY inhibitor, LNA positions and linkages not given here) | decreased expression | increased | increased | –
